Each block holds one compound with its values, some of them ahead of it.
Tests used:
[1] = target: Carbonic anhydrase 2, Homo sapiens (UniProt P00918)
[2] = target: T1, Glycylpeptide N-tetradecanoyltransferase, Trypanosoma brucei brucei (strain 927/4 GUTat10.1) (UniProt Q388H8)
T1 sequence (whole entry): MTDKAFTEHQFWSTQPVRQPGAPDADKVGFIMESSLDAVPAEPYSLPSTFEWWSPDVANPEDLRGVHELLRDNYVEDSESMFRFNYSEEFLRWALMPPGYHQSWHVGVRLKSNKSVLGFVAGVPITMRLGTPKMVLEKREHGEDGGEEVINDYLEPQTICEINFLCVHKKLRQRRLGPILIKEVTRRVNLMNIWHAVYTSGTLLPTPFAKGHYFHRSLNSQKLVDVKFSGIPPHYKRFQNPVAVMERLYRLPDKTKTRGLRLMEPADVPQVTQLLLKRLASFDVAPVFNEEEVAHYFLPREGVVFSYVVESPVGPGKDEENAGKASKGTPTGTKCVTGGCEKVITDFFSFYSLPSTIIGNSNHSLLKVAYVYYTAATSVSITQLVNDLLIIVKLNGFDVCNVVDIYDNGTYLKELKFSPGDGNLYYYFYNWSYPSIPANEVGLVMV

[3] = target: T2, Mitogen-activated protein kinase kinase kinase 7/TGF-beta-activated kinase 1 and MAP3K7-binding protein 1, Homo sapiens (UniProt O43318+Q15750)
T2 sequence (whole entry): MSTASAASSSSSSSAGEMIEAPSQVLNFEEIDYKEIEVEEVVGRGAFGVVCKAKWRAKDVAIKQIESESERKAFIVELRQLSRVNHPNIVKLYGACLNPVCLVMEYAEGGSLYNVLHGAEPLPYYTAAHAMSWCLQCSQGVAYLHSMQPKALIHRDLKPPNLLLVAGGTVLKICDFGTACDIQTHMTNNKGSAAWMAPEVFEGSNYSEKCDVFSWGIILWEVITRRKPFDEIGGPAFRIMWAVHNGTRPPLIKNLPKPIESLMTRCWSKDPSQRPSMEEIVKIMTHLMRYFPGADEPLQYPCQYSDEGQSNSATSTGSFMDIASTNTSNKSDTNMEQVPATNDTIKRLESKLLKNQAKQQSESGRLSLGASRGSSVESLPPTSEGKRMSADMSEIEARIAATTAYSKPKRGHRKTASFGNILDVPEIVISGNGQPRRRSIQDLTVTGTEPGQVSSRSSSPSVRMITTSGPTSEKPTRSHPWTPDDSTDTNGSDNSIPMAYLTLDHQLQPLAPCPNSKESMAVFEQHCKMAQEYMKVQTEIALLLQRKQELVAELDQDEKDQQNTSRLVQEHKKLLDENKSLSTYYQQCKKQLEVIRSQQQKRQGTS

[4] = target: Delta-type opioid receptor, Mus musculus (UniProt P32300)
[5] = target: T3, Muscarinic acetylcholine receptor M5, Homo sapiens (UniProt P08912)
T3 sequence (whole entry): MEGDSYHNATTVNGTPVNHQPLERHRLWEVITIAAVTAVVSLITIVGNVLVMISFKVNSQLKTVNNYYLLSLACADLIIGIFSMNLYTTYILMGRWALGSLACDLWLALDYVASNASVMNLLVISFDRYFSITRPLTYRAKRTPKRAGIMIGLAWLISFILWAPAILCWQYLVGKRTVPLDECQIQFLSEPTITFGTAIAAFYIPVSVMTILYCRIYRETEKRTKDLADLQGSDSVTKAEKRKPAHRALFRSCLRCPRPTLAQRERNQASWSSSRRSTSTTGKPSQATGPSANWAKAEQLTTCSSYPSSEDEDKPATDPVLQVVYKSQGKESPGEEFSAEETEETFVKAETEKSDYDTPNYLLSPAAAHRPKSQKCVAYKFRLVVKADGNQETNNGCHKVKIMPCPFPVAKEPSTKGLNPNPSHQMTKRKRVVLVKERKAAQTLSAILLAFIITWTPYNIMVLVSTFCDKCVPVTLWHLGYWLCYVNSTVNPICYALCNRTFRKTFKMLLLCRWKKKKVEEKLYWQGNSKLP

[6] = target: Inositol hexakisphosphate kinase 1, Homo sapiens (UniProt Q92551)
[7] = target: Carbonic anhydrase 2, Homo sapiens (UniProt P00918); remark: listed apart in the source
[8] = target: T4, Carbonic anhydrase, Pseudomonas aeruginosa (strain ATCC 15692 / DSM 22644 / CIP 104116 / JCM 14847 / LMG 12228 / 1C / PRS 101 / PAO1) (UniProt Q9HVB9)
T4 sequence (whole entry): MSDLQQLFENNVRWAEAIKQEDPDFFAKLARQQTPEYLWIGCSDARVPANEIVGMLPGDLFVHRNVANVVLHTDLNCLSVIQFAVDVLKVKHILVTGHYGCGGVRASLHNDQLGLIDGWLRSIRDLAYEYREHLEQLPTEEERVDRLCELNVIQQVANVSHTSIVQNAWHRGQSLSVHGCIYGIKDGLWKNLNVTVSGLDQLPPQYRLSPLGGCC

[9] = target: T5, Carbonic anhydrase, Methanosarcina thermophila (strain ATCC 43570 / DSM 1825 / OCM 12 / VKM B-1830 / TM-1) (UniProt P40881)
T5 sequence (whole entry): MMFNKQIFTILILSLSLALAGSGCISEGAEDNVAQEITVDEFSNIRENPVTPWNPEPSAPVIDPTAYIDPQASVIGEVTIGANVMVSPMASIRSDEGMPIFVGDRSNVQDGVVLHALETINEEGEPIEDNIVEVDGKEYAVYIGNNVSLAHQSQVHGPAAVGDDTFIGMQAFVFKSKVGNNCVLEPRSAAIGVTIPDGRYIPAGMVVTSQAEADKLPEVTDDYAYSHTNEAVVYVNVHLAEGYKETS

Sequence of Delta-type opioid receptor, Mus musculus (P32300 whole entry): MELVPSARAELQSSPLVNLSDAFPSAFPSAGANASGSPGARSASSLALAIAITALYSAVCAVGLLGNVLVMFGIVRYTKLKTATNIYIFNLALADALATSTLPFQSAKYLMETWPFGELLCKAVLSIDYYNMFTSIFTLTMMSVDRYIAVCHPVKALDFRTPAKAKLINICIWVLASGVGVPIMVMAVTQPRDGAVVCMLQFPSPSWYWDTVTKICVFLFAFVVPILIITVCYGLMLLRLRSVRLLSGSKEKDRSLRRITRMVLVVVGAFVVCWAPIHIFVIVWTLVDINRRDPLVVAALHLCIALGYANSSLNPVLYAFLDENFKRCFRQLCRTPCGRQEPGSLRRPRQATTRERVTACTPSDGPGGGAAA
Sequence of Inositol hexakisphosphate kinase 1, Homo sapiens (Q92551 whole entry, looked up): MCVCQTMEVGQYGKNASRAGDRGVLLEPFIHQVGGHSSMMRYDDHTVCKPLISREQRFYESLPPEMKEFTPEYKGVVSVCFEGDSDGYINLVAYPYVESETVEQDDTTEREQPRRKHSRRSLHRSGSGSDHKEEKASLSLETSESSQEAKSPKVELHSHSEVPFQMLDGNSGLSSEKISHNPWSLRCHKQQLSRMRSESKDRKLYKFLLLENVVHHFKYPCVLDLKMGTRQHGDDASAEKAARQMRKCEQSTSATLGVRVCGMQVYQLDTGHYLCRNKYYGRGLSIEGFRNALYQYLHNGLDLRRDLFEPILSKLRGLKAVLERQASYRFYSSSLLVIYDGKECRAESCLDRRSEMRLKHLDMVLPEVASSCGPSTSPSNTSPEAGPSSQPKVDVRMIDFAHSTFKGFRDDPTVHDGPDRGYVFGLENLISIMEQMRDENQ

Ki [1]: > 10 µM
Structure (SMILES): CC(C)[C@H]1NC(=O)[C@@H](C)[C@@H](CC=CCCC(N)=O)NC(=O)[C@@H](Cc2ccc(O)cc2)NC(=O)[C@@H](C)NC1=O

Structure (SMILES): Cc1nn(C)c(C)c1N[SH+]([O-])c1c(Cl)cc(-c2ccc(OC(F)(F)F)cc2)cc1-c1ccc(OC(F)(F)F)cc1 (stereo not given)
IC50 [2]: > 100 µM

IC50 [3]: > 5 µM
Structure (SMILES): O=C1CSC(/N=N/c2c(O)[nH]c3ccccc23)=N1

Structure (SMILES): COc1cc2c(c(OC)c1OC)-c1cc3c(cc1C(=O)[C@@H]1COC(=O)[C@H]1C2)OCO3
IC50 [4]: > 10 µM

Ki [1]: > 10 µM
Structure (SMILES): CC(C)[C@H]1NC(=O)[C@@H](C)[C@@H](CC=CCCC(=O)O)NC(=O)[C@@H](Cc2ccc(O)cc2)NC(=O)[C@@H](C)NC1=O

Ki [5]: > 10 µM
Structure (SMILES): O=c1c(OC2C(O)OC(CO)C(O)C2O)c(-c2ccc(O)c(O)c2)oc2cc(O)cc(O)c12 (stereo not given)

IC50 [6]: < 200 µM
Structure (SMILES): O=[N+](O)c1ccc(CNc2nc(NCc3cccc(C(F)(F)F)c3)nc3[nH]cnc23)cc1

Structure (SMILES): C=CC(=O)Nc1ccc(Cn2nc(-c3ccc4[nH]c(C)nc4c3)c3c(N)ncnc32)cc1
Ki [7]: > 200000 µM
Ki [8]: > 100000 µM
Ki [9]: > 200000 µM

Source: the GenesisPotency data set
